Reference: ChEMBL document CHEMBL4359906, “Design and synthesis of new N-terminal fatty acid modified-antimicrobial peptide analogues with potent in vitro biological activity” (Eur J Med Chem, 2019)
Converted amounts (≈) assume the structure as drawn. The source made the active and inactive calls. No cut-off for these calls is given here.

Columns and labels:
Escherichia coli [1] = assay: Antibacterial activity against Escherichia coli ATCC 25922 after 18 hrs by CLSI based broth microdilution method; format: functional; conditions: ATCC 25922, 18 h
Escherichia coli [2] = assay: Antibacterial activity against Escherichia coli ATCC 43837 after 18 hrs by CLSI based broth microdilution method; format: functional; conditions: ATCC 43837, 18 h
Klebsiella pneumoniae [3] = assay: Antibacterial activity against Klebsiella pneumoniae ATCC 700603 after 18 hrs by CLSI based broth microdilution method; format: functional; conditions: Klebsiella pneumoniae, 700603, 18 h
Pseudomonas aeruginosa [4] = assay: Antibacterial activity against Pseudomonas aeruginosa ATCC 27853 after 18 hrs by CLSI based broth microdilution method; format: functional; conditions: ATCC 27853, 18 h
Staphylococcus aureus [5] = assay: Antibacterial activity against Staphylococcus aureus ATCC 25923 after 18 hrs by CLSI based broth microdilution method; format: functional; conditions: ATCC 25923, 18 h
Staphylococcus aureus [6] = assay: Antibacterial activity against methicillin-resistant Staphylococcus aureus 936 after 18 hrs by CLSI based broth microdilution method; format: functional; conditions: Staphylococcus aureus, 936, 18 h
Bacillus subtilis = assay: Antibacterial activity against Bacillus subtilis ATCC 23857 after 18 hrs by CLSI based broth microdilution method; format: functional; conditions: ATCC 23857, 18 h
Escherichia coli [7] = assay: Potentiation of polymyxin B-induced antibacterial activity against Escherichia coli ATCC 25922 assessed as FICI after 18 hrs by checker board assay; format: functional
Klebsiella pneumoniae [8] = assay: Potentiation of polymyxin B-induced antibacterial activity against Klebsiella pneumoniae ATCC 700603 assessed as FICI after 18 hrs by checker board assay; format: functional
Pseudomonas aeruginosa [9] = assay: Potentiation of polymyxin B-induced antibacterial activity against Pseudomonas aeruginosa ATCC 27853 assessed as FICI after 18 hrs by checker board assay; format: functional
Escherichia coli [10] = assay: Potentiation of rifampicin-induced antibacterial activity against Escherichia coli ATCC 25922 assessed as FICI after 18 hrs by checker board assay; format: functional
Klebsiella pneumoniae [11] = assay: Potentiation of rifampicin-induced antibacterial activity against Klebsiella pneumoniae ATCC 700603 assessed as FICI after 18 hrs by checker board assay; format: functional
Pseudomonas aeruginosa [12] = assay: Potentiation of rifampicin-induced antibacterial activity against Pseudomonas aeruginosa ATCC 27853 assessed as FICI after 18 hrs by checker board assay; format: functional
Escherichia coli [13] = assay: Antibacterial activity against Escherichia coli ATCC 25922 at 0.5 times MIC incubated for 18 hrs measured for 15 passages by CLSI based broth microdilution method; format: functional, organism-based
Escherichia coli [14] = assay: Antibiofilm activity against Escherichia coli ATCC 25922 after 24 hrs by crystal violet staining based assay; format: functional, organism-based
Staphylococcus aureus [15] = assay: Antibiofilm activity against Staphylococcus aureus ATCC 25923 after 24 hrs by crystal violet staining based assay; format: functional, organism-based
Pseudomonas aeruginosa [16] = assay: Antibiofilm activity against Pseudomonas aeruginosa ATCC 27853 after 24 hrs by crystal violet staining based assay; format: functional, organism-based
Escherichia coli [17] = assay: Antibiofilm activity against Escherichia coli ATCC 25922 at 2 times MIC after 24 hrs by crystal violet staining based assay; format: functional, organism-based
Pseudomonas aeruginosa [18] = assay: Antibiofilm activity against Pseudomonas aeruginosa ATCC 27853 at 0.25 to 2 times of MIC after 24 hrs by crystal violet staining based assay; format: functional, organism-based
Escherichia coli [19] = assay: Antimicrobial activity against Escherichia coli ATCC 25922 at 1 mM preincubated for 6 hrs in presence of 2000 ug/ml trypsin and measured after 18 hrs by microplate reader analysis; format: functional, organism-based
Escherichia coli [20] = assay: Antimicrobial activity against Escherichia coli ATCC 25922 at 1 mM preincubated for 6 hrs in presence of 2 ug/ml chymotrypsin and measured after 18 hrs by microplate reader analysis; format: functional, organism-based
Escherichia coli [21] = assay: Ratio of MIC for Escherichia coli ATCC 25922 preincubated for 1 hr in presence of 10% mouse serum and measured after 18 hrs to MIC for antibacterial activity against Escherichia coli ATCC 25922 after 18 hrs; format: functional
Escherichia coli [22] = assay: Ratio of MIC for Escherichia coli ATCC 25922 preincubated for 6 hrs in presence of 10% mouse serum and measured after 18 hrs to MIC for antibacterial activity against Escherichia coli ATCC 25922 after 18 hrs; format: functional
Escherichia coli [23] = assay: Induction of outer membrane permeabilization in Escherichia coli ATCC 25922 measured up to 12 mins by NPN-dye based assay; format: organism-based
Escherichia coli [24] = assay: Induction of inner membrane permeabilization in Escherichia coli ATCC 43837 assessed as increase in ONPG release at 4 times of MIC by ONPG dye based assay; format: organism-based
Escherichia coli [25] = assay: Induction of inner membrane permeabilization in Escherichia coli ATCC 43837 assessed as increase in ONPG release at 1 to 2 times of MIC by ONPG dye based assay; format: organism-based
Escherichia coli [26] = assay: Disruption of membrane integrity in Escherichia coli ATCC 25922 assessed as membrane damage by measuring PI fluorescence at 4 times of MIC incubated for 1 hr by PI dye based flow cytometric analysis (reference value: 1.35%); format: functional
Escherichia coli [27] = assay: Disruption of membrane integrity in Escherichia coli ATCC 25922 assessed as membrane damage by measuring PI fluorescence at 2 times of MIC incubated for 1 hr by PI dye based flow cytometric analysis (reference value: 1.35%); format: functional
Escherichia coli [28] = assay: Disruption of membrane integrity in Escherichia coli ATCC 25922 assessed as membrane damage by measuring PI fluorescence incubated for 1 hr by PI dye based flow cytometric analysis; format: functional, organism-based
Escherichia coli [29] = assay: Induction of membrane disruption in Escherichia coli ATCC 25922 assessed as rough membrane surface at 4 times of MIC after 2 hrs by SEM analysis; format: functional, organism-based
Escherichia coli [30] = assay: Induction of membrane disruption in Escherichia coli ATCC 25922 assessed as degeneration in membrane at 4 times of MIC after 2 hrs by SEM analysis; format: functional, organism-based
Escherichia coli [31] = assay: Ratio of antibacterial activity against Escherichia coli ATCC 25922 in presence of NaCl to antibacterial activity against Escherichia coli ATCC 25922; format: functional
Escherichia coli [32] = assay: Ratio of antibacterial activity against Escherichia coli ATCC 25922 in presence of KCl to antibacterial activity against Escherichia coli ATCC 25922; format: functional
Escherichia coli [33] = assay: Ratio of antibacterial activity against Escherichia coli ATCC 25922 in presence of MgCl2 to antibacterial activity against Escherichia coli ATCC 25922; format: functional
Escherichia coli [34] = assay: Ratio of antibacterial activity against Escherichia coli ATCC 25922 in presence of FeCl3 to antibacterial activity against Escherichia coli ATCC 25922; format: functional
Staphylococcus aureus [35] = assay: Ratio of antibacterial activity against Staphylococcus aureus ATCC 25923 in presence of NaCl to antibacterial activity against Staphylococcus aureus ATCC 25923; format: functional
Staphylococcus aureus [36] = assay: Ratio of antibacterial activity against Staphylococcus aureus ATCC 25923 in presence of KCl to antibacterial activity against Staphylococcus aureus ATCC 25923; format: functional
Staphylococcus aureus [37] = assay: Ratio of antibacterial activity against Staphylococcus aureus ATCC 25923 in presence of MgCl2 to antibacterial activity against Staphylococcus aureus ATCC 25923; format: functional
Escherichia coli [38] = assay: Induction of membrane disruption in Escherichia coli ATCC 25922 assessed as fracture in membrane at 4 times of MIC after 2 hrs by SEM analysis; format: functional, organism-based
Escherichia coli [39] = assay: Induction of ROS generation in Escherichia coli ATCC 25922; format: functional, organism-based

SMILES	MIC (Escherichia coli [1]) [µM]	MIC (Escherichia coli [2]) [µM]	MIC (Klebsiella pneumoniae [3]) [µM]	MIC (Pseudomonas aeruginosa [4]) [µM]	MIC (Staphylococcus aureus [5]) [µM]	MIC (Staphylococcus aureus [6]) [µM]	MIC (Bacillus subtilis) [µM]	fractional inhibitory concentration index (FICI) (Escherichia coli [7])	fractional inhibitory concentration index (FICI) (Klebsiella pneumoniae [8])	fractional inhibitory concentration index (FICI) (Pseudomonas aeruginosa [9])	fractional inhibitory concentration index (FICI) (Escherichia coli [10])	fractional inhibitory concentration index (FICI) (Klebsiella pneumoniae [11])	fractional inhibitory concentration index (FICI) (Pseudomonas aeruginosa [12])	Activity (Escherichia coli [13])	inhibition (Escherichia coli [14])	inhibition (Staphylococcus aureus [15])	inhibition (Pseudomonas aeruginosa [16])	inhibition (Escherichia coli [17])	inhibition (Pseudomonas aeruginosa [18])	Activity (Escherichia coli [19])	other results
CCCCCCCCCC(=O)NC(Cc1cn(CCCC[C@H](NC(C)=O)C(=O)NCC(=O)N[C@@H](CC(C)C)C(=O)N[C@@H](CC(C)C)C(=O)N[C@H](CCCCN)C(=O)N[C@@H](CCCNC(=N)N)C(=O)N[C@H](C(=O)N[C@H](CCCCN)C(=O)N[C@H](C(=O)N[C@@H](CC(C)C)C(=O)N[C@@H](CC(C)C)C(N)=O)[C@@H](C)O)[C@@H](C)CC)nn1)C(=O)NCC(=O)N[C@@H](CC(C)C)C(=O)N[C@@H](CC(C)C)C(=O)N[C@H](CCCCN)C(=O)N[C@@H](CCCNC(=N)N)C(=O)N[C@H](C(=O)N[C@H](CCCCN)C(=O)N[C@H](C(=O)N[C@@H](CC(C)C)C(=O)N[C@@H](CC(C)C)C(N)=O)[C@@H](C)O)[C@@H](C)CC (stereo not given in full)	8 (≈ 22 µg/mL)	8 (≈ 22 µg/mL)	16 (≈ 44 µg/mL)	8 (≈ 22 µg/mL)	8 (≈ 22 µg/mL)	16 (≈ 44 µg/mL)	2 (≈ 5.51 µg/mL)	0.3125	0.5625	0.25	0.3125	0.5	0.5625	Active	Dose-dependent effect	Dose-dependent effect	Dose-dependent effect	Active	Active	Active	Activity (Escherichia coli [20]): Active; Ratio (Escherichia coli [21]): 1; Ratio (Escherichia coli [22]): 2; Activity (Escherichia coli [23]): Dose-dependent effect; Activity (Escherichia coli [24]): Active; Activity (Escherichia coli [25]): Active; Activity (Escherichia coli [26]): 82.3%; Activity (Escherichia coli [27]): 56.3%; Activity (Escherichia coli [28]): Dose-dependent effect; Activity (Escherichia coli [29]): Active; Activity (Escherichia coli [30]): Active; Ratio (Escherichia coli [31]): 2 - 4; Ratio (Escherichia coli [32]): 2 - 4; Ratio (Escherichia coli [33]): 2 - 4; Ratio (Escherichia coli [34]): 2 - 4; Ratio (Staphylococcus aureus [35]): 2 - 4; Ratio (Staphylococcus aureus [36]): 2 - 4; Ratio (Staphylococcus aureus [37]): 2 - 4; Activity (Escherichia coli [38]): Active; Activity (Escherichia coli [39]): inactive
CCCCCCCCCCCC(=O)NC(Cc1cn(CCCC[C@H](NC(C)=O)C(=O)NCC(=O)N[C@@H](CC(C)C)C(=O)N[C@@H](CC(C)C)C(=O)N[C@H](CCCCN)C(=O)N[C@@H](CCCNC(=N)N)C(=O)N[C@H](C(=O)N[C@H](CCCCN)C(=O)N[C@H](C(=O)N[C@@H](CC(C)C)C(=O)N[C@@H](CC(C)C)C(N)=O)[C@@H](C)O)[C@@H](C)CC)nn1)C(=O)NCC(=O)N[C@@H](CC(C)C)C(=O)N[C@@H](CC(C)C)C(=O)N[C@H](CCCCN)C(=O)N[C@@H](CCCNC(=N)N)C(=O)N[C@H](C(=O)N[C@H](CCCCN)C(=O)N[C@H](C(=O)N[C@@H](CC(C)C)C(=O)N[C@@H](CC(C)C)C(N)=O)[C@@H](C)O)[C@@H](C)CC (stereo not given in full)	8 (≈ 22.2 µg/mL)	8 (≈ 22.2 µg/mL)	8 (≈ 22.2 µg/mL)	8 (≈ 22.2 µg/mL)	8 (≈ 22.2 µg/mL)	16 (≈ 44.5 µg/mL)	2 (≈ 5.56 µg/mL)	0.3125	0.3125	0.1875	0.5625	0.5	0.3125	Active	Dose-dependent effect	Dose-dependent effect	Dose-dependent effect	Active	Active	Active	Activity (Escherichia coli [20]): Active; Ratio (Escherichia coli [21]): 2; Ratio (Escherichia coli [22]): 4; Activity (Escherichia coli [23]): Dose-dependent effect; Activity (Escherichia coli [24]): Active; Activity (Escherichia coli [25]): Active; Activity (Escherichia coli [26]): 88.9%; Activity (Escherichia coli [27]): 60.7%; Activity (Escherichia coli [28]): Dose-dependent effect; Activity (Escherichia coli [29]): Active; Activity (Escherichia coli [30]): Active; Ratio (Escherichia coli [31]): 2 - 4; Ratio (Escherichia coli [32]): 2 - 4; Ratio (Escherichia coli [33]): 2 - 4; Ratio (Escherichia coli [34]): 2 - 4; Ratio (Staphylococcus aureus [35]): 2 - 4; Ratio (Staphylococcus aureus [36]): 2 - 4; Ratio (Staphylococcus aureus [37]): 2 - 4; Activity (Escherichia coli [38]): Active; Activity (Escherichia coli [39]): inactive
